Assay results published in ChEMBL document CHEMBL1687747, “Effect of mild and moderate liver disease on the pharmacokinetics of isavuconazole after intravenous and oral administration of a single dose of the prodrug BAL8557” (Antimicrob Agents Chemother, 2009).

Tests used:
Conditions in all cases: in vivo
Homo sapiens [1] = assay: AUC (0 to infinity) in plasma of human with mild liver impairment assessed as isavuconazole level at 180.5 mg, iv administered as single dose over 2 hrs following overnight fasting by high-pressure liquid chromatography coupled with tandem mass spectrometry; format: ADME, organism-based; design: dose 180.5 mg, time infinity, route intravenous
Homo sapiens [2] = assay: AUC (0 to infinity) in plasma of human with moderate liver impairment assessed as isavuconazole level at 180.5 mg, iv administered as single dose over 2 hrs following overnight fasting by high-pressure liquid chromatography coupled with tandem mass spectrometry; format: ADME, organism-based; design: dose 180.5 mg, route intravenous, time infinity
Homo sapiens [3] = assay: AUC (0 to infinity) in healthy human plasma assessed as isavuconazole level at 180.5 mg, po administered as single dose over 2 hrs following overnight fasting by high-pressure liquid chromatography coupled with tandem mass spectrometry; format: ADME, organism-based; design: dose 180.5 mg, route oral, time infinity
Homo sapiens [4] = assay: AUC (0 to infinity) in plasma of human with mild liver impairment assessed as isavuconazole level at 180.5 mg, po administered as single dose over 2 hrs following overnight fasting by high-pressure liquid chromatography coupled with tandem mass spectrometry; format: ADME, organism-based; design: dose 180.5 mg, route oral, time infinity
Homo sapiens [5] = assay: AUC (0 to infinity) in plasma of human with moderate liver impairment assessed as isavuconazole level at 180.5 mg, po administered as single dose over 2 hrs following overnight fasting by high-pressure liquid chromatography coupled with tandem mass spectrometry; format: ADME, organism-based; design: dose 180.5 mg, route oral, time infinity
Homo sapiens [6] = assay: Tmax in healthy human plasma assessed as isavuconazole level at 180.5 mg, po administered as single dose over 2 hrs following overnight fasting by high-pressure liquid chromatography coupled with tandem mass spectrometry; format: ADME, organism-based
Homo sapiens [7] = assay: Tmax in plasma of human with mild liver impairment assessed as isavuconazole level at 180.5 mg, po administered as single dose over 2 hrs following overnight fasting by high-pressure liquid chromatography coupled with tandem mass spectrometry; format: ADME, organism-based
Homo sapiens [8] = assay: Tmax in plasma of human with moderate liver impairment assessed as isavuconazole level at 180.5 mg, po administered as single dose over 2 hrs following overnight fasting by high-pressure liquid chromatography coupled with tandem mass spectrometry; format: ADME, organism-based
Homo sapiens [9] = assay: Cmax in healthy human plasma assessed as isavuconazole level at 180.5 mg, iv administered as single dose over 2 hrs following overnight fasting by high-pressure liquid chromatography coupled with tandem mass spectrometry by HPLC-tandem mass spectrometry; format: ADME, organism-based; design: dose 180.5 mg, route intravenous
Homo sapiens [10] = assay: Cmax in plasma of human with mild liver impairment assessed as isavuconazole level at 180.5 mg, iv administered as single dose over 2 hrs following overnight fasting by high-pressure liquid chromatography coupled with tandem mass spectrometry by HPLC-tandem mass spectrometry; format: ADME, organism-based; design: dose 180.5 mg, route intravenous
Homo sapiens [11] = assay: Cmax in plasma of human with moderate liver impairment assessed as isavuconazole level at 180.5 mg, iv administered as single dose over 2 hrs following overnight fasting by high-pressure liquid chromatography coupled with tandem mass spectrometry by HPLC-tandem mass spectrometry; format: ADME, organism-based; design: dose 180.5 mg, route intravenous
Homo sapiens [12] = assay: Cmax in healthy human plasma assessed as isavuconazole level at 180.5 mg, po administered as single dose over 2 hrs following overnight fasting by high-pressure liquid chromatography coupled with tandem mass spectrometry by HPLC-tandem mass spectrometry; format: ADME, organism-based; design: dose 180.5 mg, route oral
Homo sapiens [13] = assay: Cmax in plasma of human with mild liver impairment assessed as isavuconazole level at 180.5 mg, po administered as single dose over 2 hrs following overnight fasting by high-pressure liquid chromatography coupled with tandem mass spectrometry by HPLC-tandem mass spectrometry; format: ADME, organism-based; design: dose 180.5 mg, route oral
Homo sapiens [14] = assay: Cmax in plasma of human with moderate liver impairment assessed as isavuconazole level at 180.5 mg, po administered as single dose over 2 hrs following overnight fasting by high-pressure liquid chromatography coupled with tandem mass spectrometry by HPLC-tandem mass spectrometry; format: ADME, organism-based; design: dose 180.5 mg, route oral
Homo sapiens [15] = assay: AUC (0 to infinity) in healthy human plasma assessed as isavuconazole level at 180.5 mg, iv administered as single dose over 2 hrs following overnight fasting by high-pressure liquid chromatography coupled with tandem mass spectrometry; format: ADME, organism-based; design: dose 180.5 mg, time infinity, route intravenous
Homo sapiens [16] = assay: Systemic clearance in healthy human plasma assessed as isavuconazole level at 180.5 mg, iv administered as single dose over 2 hrs following overnight fasting by high-pressure liquid chromatography coupled with tandem mass spectrometry; format: ADME, organism-based
Homo sapiens [17] = assay: Systemic clearance in plasma of human with mild liver impairment assessed as isavuconazole level at 180.5 mg, iv administered as single dose over 2 hrs following overnight fasting by high-pressure liquid chromatography coupled with tandem mass spectrometry; format: ADME, organism-based
Homo sapiens [18] = assay: Systemic clearance in plasma of human with moderate liver impairment assessed as isavuconazole level at 180.5 mg, iv administered as single dose over 2 hrs following overnight fasting by high-pressure liquid chromatography coupled with tandem mass spectrometry; format: ADME, organism-based
Homo sapiens [19] = assay: Oral clearance in healthy human plasma assessed as isavuconazole level at 180.5 mg, po administered as single dose over 2 hrs following overnight fasting by high-pressure liquid chromatography coupled with tandem mass spectrometry; format: ADME, organism-based
Homo sapiens [20] = assay: Oral clearance in plasma of human with mild liver impairment assessed as isavuconazole level at 180.5 mg, po administered as single dose over 2 hrs following overnight fasting by high-pressure liquid chromatography coupled with tandem mass spectrometry; format: ADME, organism-based
Homo sapiens [21] = assay: Oral clearance in plasma of human with moderate liver impairment assessed as isavuconazole level at 180.5 mg, po administered as single dose over 2 hrs following overnight fasting by high-pressure liquid chromatography coupled with tandem mass spectrometry; format: ADME, organism-based
Homo sapiens [22] = assay: Volume of distribution at steady state in healthy human assessed as isavuconazole level at 180.5 mg, iv administered as single dose over 2 hrs following overnight fasting by high-pressure liquid chromatography coupled with tandem mass spectrometry; format: ADME, organism-based
Homo sapiens [23] = assay: Volume of distribution at steady state in of human with mild liver impairment assessed as isavuconazole level at 180.5 mg, iv administered as single dose over 2 hrs following overnight fasting by high-pressure liquid chromatography coupled with tandem mass spectrometry; format: ADME, organism-based
Homo sapiens [24] = assay: Volume of distribution at steady state in of human with moderate liver impairment assessed as isavuconazole level at 180.5 mg, iv administered as single dose over 2 hrs following overnight fasting by high-pressure liquid chromatography coupled with tandem mass spectrometry; format: ADME, organism-based
Homo sapiens [25] = assay: Volume of distribution at steady state in healthy human assessed as isavuconazole level at 180.5 mg, po administered as single dose over 2 hrs following overnight fasting by high-pressure liquid chromatography coupled with tandem mass spectrometry; format: ADME, organism-based
Homo sapiens [26] = assay: Volume of distribution at steady state in of human with mild liver impairment assessed as isavuconazole level at 180.5 mg, po administered as single dose over 2 hrs following overnight fasting by high-pressure liquid chromatography coupled with tandem mass spectrometry; format: ADME, organism-based
Homo sapiens [27] = assay: Volume of distribution at steady state in of human with moderate liver impairment assessed as isavuconazole level at 180.5 mg, po administered as single dose over 2 hrs following overnight fasting by high-pressure liquid chromatography coupled with tandem mass spectrometry; format: ADME, organism-based
Homo sapiens [28] = assay: Terminal half life in healthy human assessed as isavuconazole level at 180.5 mg, iv administered as single dose over 2 hrs following overnight fasting by high-pressure liquid chromatography coupled with tandem mass spectrometry; format: ADME, organism-based
Homo sapiens [29] = assay: Terminal half life in human with mild liver impairment assessed as isavuconazole level at 180.5 mg, iv administered as single dose over 2 hrs following overnight fasting by high-pressure liquid chromatography coupled with tandem mass spectrometry; format: ADME, organism-based
Homo sapiens [30] = assay: Terminal half life in human with moderate liver impairment assessed as isavuconazole level at 180.5 mg, iv administered as single dose over 2 hrs following overnight fasting by high-pressure liquid chromatography coupled with tandem mass spectrometry; format: ADME, organism-based
Homo sapiens [31] = assay: Terminal half life in healthy human assessed as isavuconazole level at 180.5 mg, po administered as single dose over 2 hrs following overnight fasting by high-pressure liquid chromatography coupled with tandem mass spectrometry; format: ADME, organism-based
Homo sapiens [32] = assay: Terminal half life in human with mild liver impairment assessed as isavuconazole level at 180.5 mg, po administered as single dose over 2 hrs following overnight fasting by high-pressure liquid chromatography coupled with tandem mass spectrometry; format: ADME, organism-based
Homo sapiens [33] = assay: Terminal half life in human with moderate liver impairment assessed as isavuconazole level at 180.5 mg, po administered as single dose over 2 hrs following overnight fasting by high-pressure liquid chromatography coupled with tandem mass spectrometry; format: ADME, organism-based
Homo sapiens [34] = assay: AUC (0 to t) in healthy human at 180.5 mg, iv administered as single dose over 2 hrs following overnight fasting by high-pressure liquid chromatography coupled with tandem mass spectrometry; format: ADME, organism-based, Plasma; design: time < 2 hr, dose 180.5 mg, route intravenous
Homo sapiens [35] = assay: AUC (0 to t) in human with mild liver impairment at 180.5 mg, iv administered as single dose over 2 hrs following overnight fasting by high-pressure liquid chromatography coupled with tandem mass spectrometry; format: ADME, organism-based; design: time < 2 hr, dose 180.5 mg, route intravenous
Homo sapiens [36] = assay: AUC (0 to t) in human with moderate liver impairment at 180.5 mg, iv administered as single dose over 2 hrs following overnight fasting by high-pressure liquid chromatography coupled with tandem mass spectrometry; format: ADME, organism-based; design: dose 180.5 mg, time < 2 hr, route intravenous
Homo sapiens [37] = assay: AUC (0 to t) in healthy human assessed as metabolite BAL8728 level at 180.5 mg, iv administered as single dose over 2 hrs following overnight fasting by high-pressure liquid chromatography coupled with tandem mass spectrometry; format: ADME, organism-based, Plasma; design: dose 180.5 mg, time < 2 hr, route intravenous
Homo sapiens [38] = assay: Toxicity in healthy human at 180.5 mg, iv administered as single dose over 2 hrs following overnight fasting; format: organism-based
Homo sapiens [39] = assay: Toxicity in of human with mild liver impairment at 180.5 mg, iv administered as single dose over 2 hrs following overnight fasting; format: organism-based
Homo sapiens [40] = assay: Toxicity in of human with moderate liver impairment at 180.5 mg, iv administered as single dose over 2 hrs following overnight fasting; format: organism-based
Homo sapiens [41] = assay: Toxicity in of human with moderate liver impairment at 180.5 mg, po administered as single dose over 2 hrs following overnight fasting; format: organism-based
Homo sapiens [42] = assay: Toxicity in of human with mild liver impairment at 180.5 mg, po administered as single dose over 2 hrs following overnight fasting; format: organism-based
Homo sapiens [43] = assay: Toxicity in healthy human at 180.5 mg, po administered as single dose over 2 hrs following overnight fasting; format: organism-based
Homo sapiens [44] = assay: AUC (0 to t) in human with mild liver impairment assessed as metabolite BAL8728 level at 180.5 mg, iv administered as single dose over 2 hrs following overnight fasting by high-pressure liquid chromatography coupled with tandem mass spectrometry; format: ADME, organism-based; design: dose 180.5 mg, time < 2 hr, route intravenous
Homo sapiens [45] = assay: AUC (0 to t) in human with moderate liver impairment assessed as metabolite BAL8728 level at 180.5 mg, iv administered as single dose over 2 hrs following overnight fasting by high-pressure liquid chromatography coupled with tandem mass spectrometry; format: ADME, organism-based; design: dose 180.5 mg, time < 2 hr, route intravenous

CNCC(=O)OCc1cccnc1N(C)C(=O)OC(C)[n+]1cnn(C[C@](O)(c2cc(F)ccc2F)[C@@H](C)c2nc(-c3ccc(C#N)cc3)cs2)c1.Cl.[Cl-] (stereo not given in full)
AUC (Homo sapiens [1]): 72 µg/h/mL
AUC (Homo sapiens [2]): 101 µg/h/mL
AUC (Homo sapiens [3]): 45 µg/h/mL
AUC (Homo sapiens [4]): 98 µg/h/mL
AUC (Homo sapiens [5]): 62 µg/h/mL
Tmax (Homo sapiens [6]): 2.4 h
Tmax (Homo sapiens [7]): 2.7 h
Tmax (Homo sapiens [8]): 2.6 h
Cmax (Homo sapiens [9]): 1090 ng/mL
Cmax (Homo sapiens [10]): 980 ng/mL
Cmax (Homo sapiens [11]): 840 ng/mL
Cmax (Homo sapiens [12]): 840 ng/mL
Cmax (Homo sapiens [13]): 730 ng/mL
Cmax (Homo sapiens [14]): 470 ng/mL
AUC (Homo sapiens [15]): 39 µg/h/mL
CL (Homo sapiens [16]): 2.73 L/h
CL (Homo sapiens [17]): 1.93 L/h
CL (Homo sapiens [18]): 1.43 L/h
CL (Homo sapiens [19]): 2.38 L/h
CL (Homo sapiens [20]): 1.26 L/h
CL (Homo sapiens [21]): 1.82 L/h
Vdss (Homo sapiens [22]): 422 L
Vdss (Homo sapiens [23]): 492 L
Vdss (Homo sapiens [24]): 471 L
Vdss (Homo sapiens [25]): 475 L
Vdss (Homo sapiens [26]): 485 L
Vdss (Homo sapiens [27]): 598 L
beta t1/2 (Homo sapiens [28]): 123 h
beta t1/2 (Homo sapiens [29]): 224 h
beta t1/2 (Homo sapiens [30]): 302 h
beta t1/2 (Homo sapiens [31]): 148 h
beta t1/2 (Homo sapiens [32]): 292 h
beta t1/2 (Homo sapiens [33]): 240 h
AUC (Homo sapiens [34]): 0.195 µg/h/mL
AUC (Homo sapiens [35]): 0.375 µg/h/mL
AUC (Homo sapiens [36]): 0.433 µg/h/mL
AUC (Homo sapiens [37]): 0.606 µg/h/mL
Activity (Homo sapiens [38]): Non-toxic
Activity (Homo sapiens [39]): Non-toxic
Activity (Homo sapiens [40]): Non-toxic
Activity (Homo sapiens [41]): Non-toxic
Activity (Homo sapiens [42]): Non-toxic
Activity (Homo sapiens [43]): Non-toxic
AUC (Homo sapiens [44]): 0.685 µg/h/mL
AUC (Homo sapiens [45]): 0.583 µg/h/mL
